Assay results: ChEMBL document CHEMBL4138130, “Effect of mofezolac-galactose distance in conjugates targeting cyclooxygenase (COX)-1 and CNS GLUT-1 carrier” (Eur J Med Chem, 2017)
Active and inactive are the calls of the source. The calls are words filed in the database; no cut-off is given here.

Key:
[1] = biological target: T1, GLUT1 (Solute carrier family 2, facilitated glucose transporter member 1) (Homo sapiens, UniProt P11166); test: Apparent permeability across basolateral to apical side in human Caco2 cells assessed as GLUT1-mediated drug transport at 100 uM after 120 mins by UV-Visible spectroscopic method; format: ADME, cell-based; conditions: Caco-2
T1 sequence (P11166 whole entry): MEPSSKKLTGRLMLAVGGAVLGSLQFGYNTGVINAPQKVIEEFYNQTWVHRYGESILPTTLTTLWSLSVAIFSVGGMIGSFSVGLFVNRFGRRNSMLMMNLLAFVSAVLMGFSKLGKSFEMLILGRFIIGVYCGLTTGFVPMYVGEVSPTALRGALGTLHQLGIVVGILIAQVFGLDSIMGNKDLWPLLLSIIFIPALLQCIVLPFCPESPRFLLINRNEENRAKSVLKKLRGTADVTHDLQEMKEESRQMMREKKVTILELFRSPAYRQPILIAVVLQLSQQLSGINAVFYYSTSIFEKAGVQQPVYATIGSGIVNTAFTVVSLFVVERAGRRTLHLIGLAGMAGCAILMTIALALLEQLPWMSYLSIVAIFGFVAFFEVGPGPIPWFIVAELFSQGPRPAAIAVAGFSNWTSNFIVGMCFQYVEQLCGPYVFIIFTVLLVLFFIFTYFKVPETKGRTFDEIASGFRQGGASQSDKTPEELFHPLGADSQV

[2] = Apparent permeability across apical to basolateral side in human Caco2 cells at 100 uM after 120 mins by UV-Visible spectroscopic method; format: ADME, cell-based; conditions: Caco-2
[3] = biological target: T2, Solute carrier family 2, facilitated glucose transporter member 1 (Homo sapiens, UniProt P11166); test: Permeability across basolateral to apical side in human Caco2 cells assessed as GLUT1-mediated drug transport by transportability method; format: ADME, cell-based; conditions: Caco-2
T2 sequence (P11166 whole entry): T1 sequence (P11166 whole entry)

Caco-2 [4] = test: Cell cycle arrest in human Caco2 cells assessed as accumulation at S-phase at 100 uM after 24 hrs by propidium iodide staining based flow cytometry; format: functional
Caco-2 [5] = test: Cell cycle arrest in human Caco2 cells assessed as accumulation at G2/M-phase at 100 uM after 24 hrs by propidium iodide staining based flow cytometry; format: functional
Caco-2 [6] = test: Cell cycle arrest in human Caco2 cells assessed as accumulation at G0/G1-phase at 100 uM after 24 hrs by propidium iodide staining based flow cytometry; format: functional
[7] = biological target: T3, Prostaglandin G/H synthase 1 (Homo sapiens, UniProt P23219); test: Inhibition of human COX1 assessed as reduction in appearance of oxidized TMPD at 50 uM using arachidonic acid as substrate by colorimetric assay relative to control
[8] = biological target: T4, Prostaglandin G/H synthase 2 (Homo sapiens) (UniProt P35354); test: Inhibition of human COX2 assessed as reduction in appearance of oxidized TMPD at 50 uM using arachidonic acid as substrate by colorimetric assay relative to control
T4 sequence (whole entry): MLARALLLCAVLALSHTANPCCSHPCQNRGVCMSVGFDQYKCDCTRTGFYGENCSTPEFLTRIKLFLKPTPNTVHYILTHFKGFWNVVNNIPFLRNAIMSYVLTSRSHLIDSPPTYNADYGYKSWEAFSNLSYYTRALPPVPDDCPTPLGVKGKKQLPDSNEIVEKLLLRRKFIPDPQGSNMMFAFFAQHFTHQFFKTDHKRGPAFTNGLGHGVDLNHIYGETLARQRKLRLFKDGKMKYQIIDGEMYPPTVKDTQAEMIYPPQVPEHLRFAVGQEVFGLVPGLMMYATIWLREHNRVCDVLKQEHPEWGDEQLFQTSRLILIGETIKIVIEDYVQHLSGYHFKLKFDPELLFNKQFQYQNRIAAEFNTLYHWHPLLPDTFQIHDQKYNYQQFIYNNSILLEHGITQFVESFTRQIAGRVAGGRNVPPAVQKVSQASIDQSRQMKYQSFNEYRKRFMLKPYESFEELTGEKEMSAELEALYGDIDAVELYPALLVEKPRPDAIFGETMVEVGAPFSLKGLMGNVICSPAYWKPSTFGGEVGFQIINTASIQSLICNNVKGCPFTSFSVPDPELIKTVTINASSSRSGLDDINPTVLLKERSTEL

[9] = biological target: T5, Prostaglandin G/H synthase 1 (Mus musculus) (UniProt P22437); test: Inhibition of COX1 in mouse BV2 cells assessed as reduction in LPS-stimulated PGE2 release by measuring PGE2 level at 0.5 uM preincubated for 1 hr followed by LPS addition measured after 48 hrs by immunoassay (reference value: 0.7555 +/- 0.032 ng/ml); format: cell-based
T5 sequence (whole entry): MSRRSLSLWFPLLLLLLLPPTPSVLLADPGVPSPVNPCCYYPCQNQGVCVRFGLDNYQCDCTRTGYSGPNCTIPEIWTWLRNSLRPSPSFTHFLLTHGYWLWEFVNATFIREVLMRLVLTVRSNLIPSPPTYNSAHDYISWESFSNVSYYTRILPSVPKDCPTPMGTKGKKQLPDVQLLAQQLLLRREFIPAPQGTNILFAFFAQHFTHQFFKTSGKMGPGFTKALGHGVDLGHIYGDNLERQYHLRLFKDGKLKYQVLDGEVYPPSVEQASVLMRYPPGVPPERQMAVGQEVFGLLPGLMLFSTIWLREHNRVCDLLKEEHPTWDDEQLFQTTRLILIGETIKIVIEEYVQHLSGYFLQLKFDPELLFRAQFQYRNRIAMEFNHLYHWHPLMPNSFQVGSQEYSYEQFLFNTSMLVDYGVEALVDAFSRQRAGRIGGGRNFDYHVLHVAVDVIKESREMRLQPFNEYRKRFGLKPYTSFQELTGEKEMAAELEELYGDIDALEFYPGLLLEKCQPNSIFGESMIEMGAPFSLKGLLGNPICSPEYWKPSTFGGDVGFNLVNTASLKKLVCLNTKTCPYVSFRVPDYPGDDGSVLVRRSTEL

[10] = biological target: T2, Solute carrier family 2, facilitated glucose transporter member 1; test: Inhibition of GLUT1-mediated 2NBDG uptake in human Caco2 cells at 0.01 to 0.1 mM after 10 mins by Hoechst 33342 staining based fluorescence assay; format: cell-based; conditions: caco-2, 10 min, 100 µM
[11] = biological target: T3, Prostaglandin G/H synthase 1; test: Inhibition of human COX1 assessed as reduction in appearance of oxidized TMPD using arachidonic acid as substrate by colorimetric assay
[12] = biological target: T6, Prostaglandin G/H synthase 2 (Homo sapiens, UniProt P35354); test: Inhibition of human COX2 assessed as reduction in appearance of oxidized TMPD using arachidonic acid as substrate by colorimetric assay
T6 sequence (P35354 whole entry): T4 sequence (whole entry)

Homo sapiens = species on record: Homo sapiens; test: Selectivity index, ratio of IC50 for inhibition of human COX2 to IC50 for inhibition of human COX1
[13] = biological target: T2, Solute carrier family 2, facilitated glucose transporter member 1; test: Inhibition of GLUT1-mediated 2NBDG uptake in human Caco2 cells at 1 to 10 mM after 10 mins by Hoechst 33342 staining based fluorescence assay; format: cell-based; conditions: caco-2, 10 min, 10000 µM
[14] = biological target: T5, Prostaglandin G/H synthase 1 (Mus musculus); test: Inhibition of COX1 in mouse BV2 cells assessed as reduction in LPS-stimulated PGE2 release by measuring PGE2 level at 10 uM preincubated for 1 hr followed by LPS addition measured after 48 hrs by immunoassay (reference value: 0.7555 +/- 0.032 ng/ml); format: cell-based
[15] = biological target: T5, Prostaglandin G/H synthase 1 (Mus musculus); test: Inhibition of COX1 in mouse BV2 cells assessed as reduction in LPS-stimulated PGE2 release by measuring PGE2 level at 1 uM preincubated for 1 hr followed by LPS addition measured after 48 hrs by immunoassay (reference value: 0.7555 +/- 0.032 ng/ml); format: cell-based
[16] = Chemical stability in pH 1 simulated gastric fluid at 2.5 mg/ml after 60 mins by HPLC analysis; format: ADME, physicochemical; conditions: simulated gi fluid, pH 1, 1 h
[17] = Chemical stability in pH 7.3 simulated blood fluid at 2.5 mg/ml after 60 mins by HPLC analysis; format: ADME, physicochemical; conditions: pH 7.3, 1 h
[18] = Chemical stability in pH 8.8 simulated gut district fluid at 2.5 mg/ml after 60 mins by HPLC analysis; format: ADME, physicochemical; conditions: buffer, pH 8.8, 1 h
[19] = Metabolic stability in rat liver S9 fraction after 30 mins in presence of NADP+ by HPLC analysis; format: ADME, subcellular; conditions: s9, 0.5 h
[20] = Retention time of the compound by HPLC analysis; format: physicochemical

T3 sequence (P23219 whole entry): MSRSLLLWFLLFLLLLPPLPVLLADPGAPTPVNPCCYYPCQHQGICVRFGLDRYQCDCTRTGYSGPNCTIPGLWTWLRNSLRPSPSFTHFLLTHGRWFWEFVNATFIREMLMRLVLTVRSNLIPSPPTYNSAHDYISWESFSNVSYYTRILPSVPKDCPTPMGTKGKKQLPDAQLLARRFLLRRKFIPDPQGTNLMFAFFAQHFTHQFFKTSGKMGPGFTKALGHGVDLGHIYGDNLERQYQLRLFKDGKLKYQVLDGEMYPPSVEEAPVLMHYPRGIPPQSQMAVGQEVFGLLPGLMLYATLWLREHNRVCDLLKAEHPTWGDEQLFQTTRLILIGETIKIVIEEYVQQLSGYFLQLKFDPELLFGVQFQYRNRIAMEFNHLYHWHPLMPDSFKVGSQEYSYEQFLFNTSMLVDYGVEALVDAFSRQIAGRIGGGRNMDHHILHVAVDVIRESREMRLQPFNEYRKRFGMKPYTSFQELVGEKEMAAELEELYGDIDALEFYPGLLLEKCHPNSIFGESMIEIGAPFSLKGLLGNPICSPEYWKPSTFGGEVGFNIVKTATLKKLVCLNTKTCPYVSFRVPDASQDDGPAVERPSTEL

Papp B→A at 2 h, 100 µM [1] [×10⁻⁶ cm/s] | Papp A→B at 2 h, 100 µM [2] [×10⁻⁶ cm/s] | permeability [3] | inhibition [7] [%] | inhibition [8] [%] | Activity [9] [ng/mL] | inhibition (INH) [10] | IC50 [11] [µM] | IC50 [12] [µM] | Ratio IC50 (Homo sapiens) | Compound | Activity (Caco-2 [4]) | Activity (Caco-2 [5]) | Activity (Caco-2 [6]) | further results
46.1 | 41.4 | Permeable | 100 | 38 | 0.0328 |  |  |  |  | COc1ccc(-c2noc(CC(=O)O)c2-c2ccc(OC)cc2)cc1 [MOFEZOLAC] | inactive | inactive | inactive | 
58.7 | 16.9 | Permeable | 90 | 64 |  | Active | 0.4 | 0.27 | 0.67 | COc1ccc(-c2noc(CC(=O)NCCCCCCCCCCC(=O)OC[C@H]3OC(O)[C@H](O)[C@@H](O)[C@H]3O)c2-c2ccc(OC)cc2)cc1 (some centres not stated) | inactive | inactive | inactive | 
 |  |  |  |  |  |  |  |  |  | OC[C@H]1OC(O)[C@H](O)[C@@H](O)[C@@H]1O (some centres not stated) [DEXTROSE] |  |  |  | inhibition (INH) [13]: Active
87.5 | 38 | Permeable | 100 | 87 | 0.0086 | Active | 0.27 | 3.1 | 11.5 | COc1ccc(-c2noc(CC(=O)OC[C@H]3O[C@@H](O)[C@H](O)[C@@H](O)[C@H]3O)c2-c2ccc(OC)cc2)cc1 | inactive | inactive | inactive | Activity [14]: 0.0103 ng/mL; Activity [15]: 0.0178 ng/mL; Stability [16]: Stable; Stability [17]: Stable; Stability [18]: Stable; Stability [19]: Stable; Retention_time [20]: 7.504 min
113 | 23.3 | Permeable | 38 | 24 |  | Active | > 50 | > 50 |  | COc1ccc(-c2noc(CC(=O)NCCCCC(=O)OC[C@H]3OC(O)[C@H](O)[C@@H](O)[C@H]3O)c2-c2ccc(OC)cc2)cc1 (some centres not stated) | Active | Active |  | 
